Values quoted from earlier work as cited in patent US20150272920A1, “METHOD FOR TREATING OBESITY WITH ANTI-OBESITY FORMULATIONS AND OMEGA 3 FATTY ACIDS FOR THE REDUCTION OF BODY WEIGHT IN CARDIOVASCULAR DISEASE PATIENTS (CVD) AND DIABETICS” (PIVOTAL THERAPEUTICS INC., priority 2014, published 2015).

Target: CB1R (Homo sapiens, UniProt P21554)
Details: in vivo

Sequence of CB1R (P21554 whole entry): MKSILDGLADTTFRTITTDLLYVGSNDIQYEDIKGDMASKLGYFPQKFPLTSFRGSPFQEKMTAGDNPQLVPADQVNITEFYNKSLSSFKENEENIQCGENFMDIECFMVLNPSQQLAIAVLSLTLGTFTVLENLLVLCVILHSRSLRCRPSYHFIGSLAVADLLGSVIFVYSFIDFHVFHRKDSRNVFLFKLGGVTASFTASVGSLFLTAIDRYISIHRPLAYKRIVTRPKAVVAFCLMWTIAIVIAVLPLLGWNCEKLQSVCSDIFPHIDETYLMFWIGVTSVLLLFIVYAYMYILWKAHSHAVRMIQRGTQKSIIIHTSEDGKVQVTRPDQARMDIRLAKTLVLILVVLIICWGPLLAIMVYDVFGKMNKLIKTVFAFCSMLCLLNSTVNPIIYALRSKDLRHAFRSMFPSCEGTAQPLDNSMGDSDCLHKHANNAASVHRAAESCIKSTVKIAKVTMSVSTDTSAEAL

CCNC1(C(N)=O)CCN(c2ncnc3c2nc(-c2ccccc2Cl)n3-c2ccc(Cl)cc2)CC1.Cl [CP-945,598]
Reason for failure of phase III clinical trials (adverse reactions): psychiatric adverse reactions, including severe depression and anxiety
